Measured values taken from patent US11964984B2, “TXNIP-TRX complex inhibitors and methods of using the same” (CITY OF HOPE, priority 2020, dated 2024).

Legend:
[1] = test system: TXNIP mRNA; test: TXNIP mRNA expression in THP1 cells under 25 mM glucose (RT-PCR); assay type: cell-based, human
Method: FIGS. 2A-2B. FIG. 2A: C30 and C38 inhibited TXNIP mRNA expression in THP1 cells. THP1 cells were cultured under 25 mM glucose with the indicated concentrations of compounds for 72 hours. Cells were then collected for total RNA preparation. RT-PCR was performed, and data shown are the mean±SEM from triplicates. Statistical analysis was performed using one-way ANOVA, *p<0.0001. FIG. 2B: C30 and C38 inhibited TNF-α mRNA expression in THP1 cells. THP1 cells were cultured under 25 mM glucose with various concentrations of compounds as indicated for 72 hours and collected for total RNA preparation. RT-PCR was performed, and data shown are the mean±SEM from triplicates. Statistical analysis was performed using one-way ANOVA: *<0.02; **<0.0001.
FIG. 6. C38 analogues effects on TXNIP mRNA expression in THP1 cells. THP1 cells were cultured under 25 mM glucose with 2.5 uM of compounds for 72 h. Total RNA was collected. RT-PCR was performed in triplicate and data shown are the mean±SEM. Statistical analysis was performed using one-way ANOVA: *p<0.0001.
FIG. 7. C38 and analogue E2 effects on TXNIP mRNA levels in THP cells. THP1 cells were cultured under 25 mM glucose with several concentration of C38 and E2 as indicated for 72 hours. Total RNA was prepared. RT-PCR was performed in triplicate and data shown are the mean±SEM. Statistical analysis was performed for each column vs. without compound control using one-way ANOVA: *p<0.0001.
C30 and C38 inhibited TXNIP mRNA expression in THP1 cells.
Discovery of lead compound analogues. A search of chemical libraries was performed in the interest of identifying possible lead compound analogues. Analogues to C38 were identified. To determine the properties of the analogues, we treated THP1 cells with the E batch compounds for three days, prepared RNA and measured TXNIP mRNA levels.
RNA extraction and quantitative RT-PCR. RNA was extracted using the Direct-zol™ RNA MiniPrep Plus (Zymo Research). Reverse transcription of RNA samples into cDNA was performed using the GeneAmp RNA PCR Kit (Applied Biosystems), dNTP (from Roche Applied Science), Rnase inhibitor, MULV Reverse Transcriptase and Random hexamers reagent (all from Invitrogen). Diluted cDNA was quantified using real-time PCR performed with Power SYBR Green qPCR MasterMix (Applied Biosystem) and 7500 real-time PCR system (Applied Biosystems). The HPRT1 gene was used as an internal control.

[2] = test system: TXNIP; settings: literature (Nature Med. 2018); cited from earlier work

Compound | TXNIP mRNA expression (C38 analogues screen) ([1]; 2.5 uM compound, 72 h) | TXNIP mRNA levels, E2 compared with C38 ([1]; several concentrations, 72 hours) | expression of TXNIP [2]
COc1ccc(CCNc2ncnc3c2oc2ccccc23)cc1OC [Compound E2] | strongly inhibited TXNIP mRNA expression | moderately better than C38 | –
COc1ccc(CCN(C)CCCC(C#N)(c2ccc(OC)c(OC)c2)C(C)C)cc1OC (stereo not drawn) [Verapamil] | – | – | inhibit the expression of TXNIP
